In ChEMBL document CHEMBL1158356, “Synthesis, anti-tuberculosis activity and 3D-QSAR study of amino acid conjugates of 4-(adamantan-1-yl) group containing quinolines” (Eur J Med Chem, 2009):

How the values were obtained:
[1] = tested on: Mycobacterium tuberculosis; experiment: Antimycobacterial activity against isoniazid-resistant Mycobacterium tuberculosis H37Rv ATCC 27294 at 3.125 ug/ml; type: functional
[2] = tested on: Mycobacterium tuberculosis; experiment: Antimycobacterial activity against isoniazid-resistant Mycobacterium tuberculosis H37Rv ATCC 27294 at 1 ug/ml; type: functional

Work on `N=C(N)NCCC[C@H](NC(=O)c1cc(C23CC4CC(CC(C4)C2)C3)c2ccccc2n1)C(=O)NN` yielded an inhibition at 3.125 µg/mL [1] of 99% and an inhibition at 1 µg/mL [2] of 60%.
